In patent US7534455B2, “Herbal composition PHY906 and its use in chemotherapy” (Yale University, priority 2000, dated 2009):
Like-named read-outs stand apart in the source and are kept apart here.

Columns and labels:
[1] = Host toxicity (body weight loss, mortality, blood cell counts) in chemotherapy treated BDF-1 mice bearing Colon 38 tumor; type: in vivo
Method: (§1) Anti-Tumor Studies: Murine Colon 38 (1-2×10^6 cells in 0.1 ml PBS) or human HepG2 cells (1-2×10^6 cells in 0.1 ml PBS) were transplanted subcutaneously into BDF1 or NCr athymic nude mice, respectively. The length and width of the tumors were measured daily with sliding calipers. The tumor weight was estimated according to the following formula (Pizzorno G, Wiegand R, Lentz S, et al., Cancer Res. 52:1660-1665 (1992)): Tumor weight (mg)=length (mm)×width (mm)^2/2.
(§2) After 10 to 14 days, mice (five animals/group) with tumor weights ranging from 150-200 mg were selected for drug studies (Guo X, Lerner-Tung M, Chen H X, et al., Biochem Pharmacol 49:1111-1116 (1995)). Mice were sacrificed when the tumor size reached 10% of body weight. PHY906 was administered orally either alone or with anti-cancer chemotherapeutic agents. The effect of PHY906 on antitumor efficacy and the reduction of toxicity by the agents were evaluated. CPT-11 was given intraperitoneally (i.p.) 30 min after PHY906 administration with the selected dose. The regimen of FU/LV combination therapy was given as follows:
The first day of treatment was defined as day 0. PHY906 was given orally twice a day (10 am and 3 pm) for either 4 or 8 days beginning on day 0. For the control group, mice were administrated a vehicle, either PBS for i.p. or H2O for p.o. (oral administration). Animals were monitored for mortality, weight loss, and tumor size daily.
Blood Cell Counts: Blood (20 μl) was taken from mice on days 0, 3, 6, 9 and 12 with micro-capillary tubes. Blood was then be diluted to 200 μl with normal saline (0.85% Sodium Chloride). WBC, RBC and platelets were counted by a BAKER SYSTEM 9100™ […] (Biochem ImmunoSystems Inc., Allentown, Pa. 18103-9562).
PHY906 was evaluated as a modulator of CPT-11 therapy for toxic side effects in mice inoculated with Colon 38 tumor cells. Based on the previous findings (Example 2), a single bolus dose of 400 mg/kg CPT-11 was selected to study the effect of PHY906 on weight-loss associated with toxicity of CPT-11. To evaluate whether PHY906 impairs the antitumor efficacy of CPT-11, mice were implanted subcutaneously with Colon 38 tumor cells. Ten to 14 days after inoculation, mice were treated with CPT-11 (400 mg/kg, i.p.) in the absence or presence of PHY906, which was given orally twice a day at varying doses (125 mg/kg, 250 mg/kg, and 500 mg/kg). PHY906 treatment was continued at the dose indicated for 8 consecutive days.
Mice were divided into four groups with different treatment regimens: Group (A) treatment with vehicle; Group (B) treatment with a single dose of 400 mg/kg CPT-11 by i.p. injection; Group (C) treatment with PHY906 (500 mg/kg/b.i.d.) alone; or Group (D) treatment with a single dose of 400 mg/kg CPT-11 plus 500 mg/kg/b.i.d. PHY906 for 4 or 8 days. The sequence of each treatment regimen appears in Materials and Methods. As depicted in Table 9, 35 of 35 tumor-bearing mice (100%) from Group A and 15 of 15 mice (100%) from Group C survived treatment with either vehicle or PHY906 alone for 4 or 8 days, indicating no or very low toxicity for PHY906.

Colon 38 tumor = assay: Tumor growth in BDF-1 mice bearing Colon 38 tumor; type: in vivo, mouse; details: CPT-11 treated mice; formulation 1 g/kg, bid, 8 days
Method: as §1, §2
(A) treatment with FU/LV alone: first dose of LV (50 mg/kg, i.p.), one hour later the second dose of LV (50 mg/kg; i.p.), then immediately given FU (100 mg/kg, i.p.) […]
The first day of treatment was defined as day 0. […] Animals were monitored for mortality, weight loss, and tumor size daily.

[2] = test system: PAN02 murine pancreatic carcinoma; assay: Tumor growth in PAN02 murine pancreatic carcinoma model; type: in vivo, mouse; details: C57/BL6 mice; 150 mg/kg
Method: Tumor Cells: The human hepatocellular carcinoma HepG2, human PANC-1 pancreatic cancer and mouse Colon 38 colorectal cancer cell lines were purchased from the American Type Culture Collection (Rockville, Md.). […] Small chunk of mouse PAN02 tumor from NCI was suspended in PBS solution as a total volume of 0.8 ml. The cells were implanted into the left flank of mice. Tumor transplantation from mice to mice was performed when the tumor reached 1500-2000 mm^3. Mouse Tumor Model: Tumor cells (5×10^6 cells in 0.1 ml PBS) were transplanted subcutaneously into the left flank of mice. After 14 days, tumor ranging in size from 300-500 mm^3 was selected for drug studies. The length and width of the each tumor was measured with sliding calipers. The tumor size was estimated according to the following formula: Tumor size (mm^3)=length (mm)×width (mm)^2/2. Antitumor Activity of Chemotherapeutic Agents in the Presence or Absence of PHY906: […] The first day of drug treatment was defined as day 1. […] Chemotherapeutic agents were given either intraperitoneally or orally at the dose and schedule indicated. The tumor size, body weight, and mortality of the mice were monitored daily.

pancreatic cancer = details: monotherapy; cited from earlier work
[3] = Pharmacokinetics of gemcitabine (dFdC) and dFdU in plasma of PAN02 bearing BDF-1 mice; type: in vivo; details: for AUC, dFdC + PHY906: PHY906 500 mg/kg 30 min before gemcitabine; for AUC, dFdC alone: gemcitabine 600 mg/kg
Method: Plasma Handling: The mouse plasma was separated from the blood by centrifugation at 10,000 g at 4° C. for 10 min.
b) Gemcitabine-containing plasma: The plasma (50 μl) was extracted with 200 μl of acetonitrile (ACN) in the presence of 5 μl of 0.1 mM AZT as an internal standard. After centrifugation, the supernatant was dried by a Speedvac, reconstituted with 100 μl of solution containing 2.5% ACN and 97.5% of 15 mM ammonium acetate (pH 5.0).
The resultant analyte was then analyzed by HPLC with UV absorption and/or radioactivity.
To determine, for a future clinical trial, if PHY906 would change the metabolism of gemcitabine, a pharmacokinetics analysis in mice bearing pancreatic cancer was performed. Mice were divided into three sets of 15: gemcitabine only, gemcitabine plus PHY906, and vehicle control. Each mouse in the set was bled twice at two different time points. Plasma was processed as described in Materials and Methods and analyzed by HPLC with radioactivity confirmation of peak identity and quantitation.

CN(C)C(=O)C(CCN1CCC(O)(c2ccc(Cl)cc2)CC1)(c1ccccc1)c1ccccc1 [Loperamide]
Protecting against body weight loss or enhancing the antitumor effects of CPT-11 ([1]; CPT-11 treated BDF-1 mice bearing Colon 38): completely ineffective
Protection from Body Weight Loss ([1]; CPT-11 treated mice, formulation 1 g/kg (dry weight incl. excipient), bid, 8 days): No Change
Antitumor Effect (Colon 38 tumor): No Change

Nc1ccn([C@@H]2O[C@H](CO)[C@@H](O)C2(F)F)c(=O)n1 [dFdC, 2′-deoxy-2′,2′-difluoro-cytidine]
Antitumor activity, gemcitabine alone [2]: did not have antitumor activity
Overall survival time (pancreatic cancer): 4-6 months
Response rate in patients (pancreatic cancer): 6-11%
Cmax ([3]; BDF-1, mouse, plasma, oral, 600 mg/kg, Radioactivity detection, read-out: Cmax, dFdC + PHY906): 400 µg/mL
Cmax ([3]; BDF-1, mouse, plasma, oral, 600 mg/kg, Radioactivity detection, read-out: Cmax, dFdC alone): 360 µg/mL
Tmax ([3]; BDF-1, mouse, plasma, oral, 600 mg/kg, Radioactivity detection, read-out: Tmax, dFdC alone (converted)): 15 min
half-life ([3]; BDF-1, mouse, plasma, oral, 600 mg/kg, Radioactivity detection, read-out: T½, dFdC + PHY906): 34.2 min
half-life ([3]; BDF-1, mouse, plasma, oral, 600 mg/kg, Radioactivity detection, read-out: T½, dFdC alone): 26.5 min
Cmax ([3]; BDF-1, mouse, plasma, oral, 600 mg/kg, UV detection, read-out: Cmax, dFdC alone): 230 µg/mL
half-life ([3]; BDF-1, mouse, plasma, oral, 600 mg/kg, UV detection, read-out: T½, dFdC alone): 27 min
Tmax, dFdC + PHY906 ([3]; Radioactivity detection): 15 min
AUC, dFdC + PHY906 ([3]; Radioactivity detection): 25.0 mg·min/mL
AUC, dFdC alone ([3]; Radioactivity detection): 15.6 mg·min/mL
Cmax, dFdC + PHY906 ([3]; UV detection): 250 µg/mL
Tmax, dFdC + PHY906 ([3]; UV detection): 15 min
Tmax, dFdC alone ([3]; UV detection): 15 min
T½, dFdC + PHY906 ([3]; UV detection): 31.0 min
AUC, dFdC + PHY906 ([3]; UV detection): 15.4 mg·min/mL
AUC, dFdC alone ([3]; UV detection): 10.8 mg·min/mL
Levels in circulation in the presence or absence of PHY906 ([3]; plasma): not a dramatic difference
